The test is described as follows: Inhibitory activity against carboxypeptidase G2 from pseudomonas RS16.

Usually Ki stands for a dissociation constant, usually derived from enzyme kinetics or from competition with a known ligand.

For the compound `O=C(O)CC[C@H](NC(=O)c1c(F)c(F)c(N(CCCl)CCCl)c(F)c1F)C(=O)O` [(S)-2-{4-[Bis-(2-chloro-ethyl)-amino]-2,3,5,6-tetrafluoro-benzoylamino}-pentanedioic acid], affinity was put at a Ki of 127 µM.
In the case of `O=C(O)CC[C@H](NC(=O)c1c(F)c(F)c(N(CCI)CCI)c(F)c1F)C(=O)O` [(S)-2-{4-[Bis-(2-iodo-ethyl)-amino]-2,3,5,6-tetrafluoro-benzoylamino}-pentanedioic acid] it was 276 µM.

These data come from BindingDB's records for doi:10.1021/jm0502182 (Institute of Cancer Research, 2005).
